Assay results from publication PMC6661809, “Lead optimization for promising monoamine oxidase inhibitor from eugenol for the treatment of neurological disorder: synthesis and in silico based study” (BMC Chemistry, 2019).

Tests used:
[1] = Ferric reducing antioxidant power (FRAP) assay; conditions: Table 9, mean ± SEM, n = 3;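 further: Ferrous-TPTZ reduction read as absorbance at 593 nm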
Description: The capacity of antioxidants to decrease ferric iron is measured by this method. The reaction of […] (TPTZ) and complex ferric iron yields ferrous form at low pH. […] This method was adopted from the reports of Benzie et al..

DPPH scavenging activity = conditions: Table 6, mean ± SEM, n = 3
Description: Solutions of synthesized compounds were set in ethanol/water (1:1) having 10 mM to 100 mM at a period of 10 mM. The 0.01% DPPH· stock solution was prepared in ethanol/water (1:1). Samples were prepared as 5 mL DPPH· solution was mixed with 5 mL L-ascorbic acid solution then shaken vigorously and kept in the dark. Corresponding blank sample were prepared and L-ascorbic acid was used as reference standard. […] The actual decrease in absorption induced by the test was compared with the positive controls. The IC50 values were calculated use the dose inhibition curve in linear range by plotting the extract concentration versus the corresponding scavenging effect through following equation [(ADR − APR)/AO] × 100. Where ADR is the absorbance prior to reaction and APR is the absorbance after reaction with DPPH·.

[2] = Nitric oxide scavenging activity; conditions: Table 8, mean ± SEM, n = 3
Source text: The generation of nitric oxide (NO·) on biological tissues is mediated by particular nitric oxide synthases enzyme that control the catabolism of the arginine to citrulline via creation of NO through a five electron oxidative reaction. At the physiological pH (7.2) in aqueous solution sodium nitroprusside decompose to produce NO·. Finally, NO· reacts with oxygen at underaerobic conditions and produces stable products (nitrate and nitrite), this amount can be determined by means of Griess reagent. The procedure for the nitric oxide scavenging activity was adopted from reports of Alam et al..

hMAO-B = target: T1, hMAO-B (Homo sapiens, UniProt P27338); assay: Recombinant human MAO-B inhibition screening (Amplex Red, p-tyramine); format: biochemical; conditions: p-tyramine substrate, mean SEM
T1 construct: purchased Sigma-Aldrich; host or cells: insect cells (BTI-TN-5B14) infected with recombinant baculovirus
T1 sequence (P27338 1-520): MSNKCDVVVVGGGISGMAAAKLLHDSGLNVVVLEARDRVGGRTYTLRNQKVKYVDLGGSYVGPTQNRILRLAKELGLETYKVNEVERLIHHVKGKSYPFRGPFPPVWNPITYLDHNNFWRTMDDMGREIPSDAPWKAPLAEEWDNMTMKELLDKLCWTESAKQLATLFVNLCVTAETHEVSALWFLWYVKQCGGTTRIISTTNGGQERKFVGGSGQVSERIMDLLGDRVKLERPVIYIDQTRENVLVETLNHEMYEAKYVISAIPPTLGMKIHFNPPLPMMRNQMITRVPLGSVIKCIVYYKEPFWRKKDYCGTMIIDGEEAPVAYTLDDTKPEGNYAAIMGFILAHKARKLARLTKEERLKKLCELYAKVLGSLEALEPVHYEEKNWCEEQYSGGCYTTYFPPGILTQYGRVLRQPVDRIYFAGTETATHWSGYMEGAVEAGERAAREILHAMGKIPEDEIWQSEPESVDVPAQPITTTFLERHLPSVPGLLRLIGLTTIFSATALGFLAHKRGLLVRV
Source text: (§1) To evaluate IC50 values for the inhibition of human MAO-A and MAO-B by newly synthesized compounds the commercially available recombinant human enzymes expressed in insect cells were used (Sigma-Aldrich). The MAO inhibition assay was based on the method described by Anderson et al., 1993 and Chimenti et al. with some modifications. The Amplex Red MAO Kit tyramine (Sigma-Aldrich) affords a suitable fluorimetric method to evaluate MAO enzyme action of synthetic and natural compounds. In the assay, MAO reacts with p-tyramine, a common substrate for both MAO isoforms, ensuing in the production of H2O2, which is identified by a fluorimetric method (λex = 530/λem = 585 nm). Each test well contained 0.1 mL of sodium phosphate buffer (0.05 M, pH 7.4), a range of concentrations of the eugenol based derivatives or reference compounds along with recombinant hMAO-A or hMAO-B in appropriate quantity. After the preparation of this mixture the wells were subjected to incubation for 15 min at 37 °C, placed in the dark fluorimeter chamber. Once this incubation period over, the process was rendered by mixing 200 µM Amplex Red reagent (Sigma-Aldrich), 1 U/mL horseradish peroxidase (Sigma-Aldrich) and p-tyramine (Sigma-Aldrich). Subsequently, the formation of hydrogen peroxide exerted by MAO isoforms was quantified by using Amplex-Red reagent, a non-fluorescent probe that reacts with H2O2 in the existence of horse radish peroxidase to generate the fluorescent component resorufin. Moreover, the control analysis was calculated in the absence of compound and reference inhibitors. The probability of compounds to change the fluorescence produced in the reaction mix due to non-enzymatic inhibition was assessed by mixing titled compounds to solutions of single Amplex Red reagent in a sodium phosphate buffer. Data were processed in Microsoft Excel, to calculate IC50 values.

[3] = Hydrogen peroxide scavenging (H2O2) assay; conditions: Table 7, mean ± SEM, n = 3
Description: Hydrogen peroxide generally turns into water and oxygen and produces highly toxic hydroxyl radical that renders the damage to DNA and peroxidation of lipid. H2O2 scavenging ability of eugenol based derivatives was evaluated by method described by Nakano and colleagues with some alteration. The hydrogen peroxide solution (40 mM) was prepared in phosphate buffer (40 mM pH 7.4) and addition of several ranges of synthesized derivatives (05–80 μg/mL) was done into H2O2 solution (2 mL). The determination of H2O2 concentration was done by UV/Vis Epoch ELISA reader at 230 nm upon incubation of 10 min. Solution of phosphate buffer without H2O2 was noted as blank reading. The hydrogen peroxide percentage inhibition was estimated through the formula [(AH − AD)/AO] × 100, where AH is the absorbance of the control and AD is the absorbance of compounds/reference taken as 05–80 μg/mL L-ascorbic acid.

hMAO-A = target: T2, hMAO-A (Homo sapiens, UniProt P21397); assay: Recombinant human MAO-A inhibition screening (Amplex Red, p-tyramine); format: biochemical; conditions: for Selectivity index: IC50 (MAO-A)/IC50 (MAO-B); for IC50: recombinant hMAO-A, p-tyramine substrate, mean SEM
T2 construct: purchased Sigma-Aldrich; host or cells: insect cells (BTI-TN-5B14) infected with recombinant baculovirus
T2 sequence (P21397 1-527): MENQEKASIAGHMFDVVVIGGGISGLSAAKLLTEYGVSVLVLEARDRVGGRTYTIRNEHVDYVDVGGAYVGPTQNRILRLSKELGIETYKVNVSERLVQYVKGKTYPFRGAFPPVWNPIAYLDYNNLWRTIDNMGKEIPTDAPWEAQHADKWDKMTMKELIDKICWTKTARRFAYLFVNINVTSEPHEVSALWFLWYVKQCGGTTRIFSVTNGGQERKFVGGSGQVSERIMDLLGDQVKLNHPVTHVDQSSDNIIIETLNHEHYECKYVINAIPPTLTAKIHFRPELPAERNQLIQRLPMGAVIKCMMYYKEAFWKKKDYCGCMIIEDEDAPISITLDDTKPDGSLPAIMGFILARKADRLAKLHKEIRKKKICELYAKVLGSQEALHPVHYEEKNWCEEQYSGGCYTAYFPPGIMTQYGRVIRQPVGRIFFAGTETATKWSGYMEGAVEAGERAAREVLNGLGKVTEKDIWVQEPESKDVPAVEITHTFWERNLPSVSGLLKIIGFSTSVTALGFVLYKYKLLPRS
Source text: as §1

| Compound | FRAP IC50 [1] [µg/mL] | DPPH scavenging IC50 (DPPH scavenging activity) [µg/mL] | Nitric oxide scavenging IC50 [2] [µg/mL] | IC50 (hMAO-B) [µM] | H2O2 scavenging IC50 [3] [µg/mL] | Selectivity index (hMAO-A) | IC50 (hMAO-A) [µM] | melting point [°C] |
| --- | --- | --- | --- | --- | --- | --- | --- | --- |
| C=CCc1ccc(OC(=O)c2ccc(O)cc2)c(OC)c1 [Compound 13b, 4-allyl-2-methoxyphenyl 4-hydroxybenzoate] | 10.77 ± 0.026 | 12.47 ± 0.014 | 11.74 ± 0.523 | 9.183 ± 0.034 | 12.5 ± 0.862 | 5.72 | 52.55 ± 0.038 | 178 to 179 |
| C=CCc1ccc(OC(=O)c2ccccc2O)c(OC)c1 [Compound 13c, 4-allyl-2-methoxyphenyl 2-hydroxybenzoate] | 14.63 ± 0.007 | 16.04 ± 0.026 | 14.63 ± 0.412 | 12.66 ± 0.021 | 15.7 ± 0.784 | 1.76 | 22.38 ± 0.067 | 157 to 159 |
| C=CCc1ccc(OC(=O)c2ccccc2S)c(OC)c1 [Compound 13d, 4-allyl-2-methoxyphenyl 2-mercaptobenzoate] | 12.45 ± 0.017 | 14.88 ± 0.018 | 11.23 ± 0.032 | 13.95 ± 0.005 | 14.4 ± 0.143 | 1.49 | 20.89 ± 0.023 | 182 to 184 |
| C=CCc1ccc(OC(=O)/C=C\c2ccc(O)c(OC)c2)c(OC)c1 [Compound 16, (Z)-4-allyl-2-methoxyphenyl 3-(4-hydroxy-3-methoxyphenyl)acrylate] | 16.88 ± 0.099 | 27.70 ± 0.023 | 18.63 ± 0.654 | 49.15 ± 0.011 | 20.6 ± 0.856 | 0.14 | 7.348 ± 0.027 | 120 to 122 |
| C=CCc1ccc(OC(=O)/C=C\c2ccccc2)c(OC)c1 [Compound 17, (Z)-4-allyl-2-methoxyphenyl 3-phenylacrylate] | 15.91 ± 0.003 | 31.30 ± 0.014 | 25.61 ± 0.076 | 34.2 ± 0.037 | 30.4 ± 0.064 | 0.40 | 13.92 ± 0.051 | – |
| O=C1O[C@H]([C@@H](O)CO)C(O)=C1O [L-Ascorbic acid, reference compound] | 8.112 ± 0.091 | 8.58 ± 0.009 | 7.523 ± 0.005 | – | 8.121 ± 0.082 | – | – | – |
